According to patent US20150119329A1, “MODULATION OF ANGIOTENSIN II RECEPTORS FOR THE PREVENTION AND TREATMENT OF MALARIA CEREBRAL” (NEW YORK UNIVERSITY, priority 2012, published 2015):
Peptide text beside a SMILES is read from it.

Tests used:
[1] = tested on: human brain microvascular endothelial cells (HBMECs); experiment: iRBC-induced disruption of interendothelial junctions and detachment of HBMEC monolayer (nuclei count, PrestoBlue viability); assay type: cell-based; conditions: P. falciparum iRBCs over HBMECs, 18 hours; compound 10^−5 M
Protocol: Cell viability assay. To assess the viability of the adherent HBMECs PrestoBlue Cell Viability Reagent (Invitrogen) was utilized. […] After 18 hours, the plates were washed twice with PBS, and PrestoBlue Cell Viability Reagent diluted 1:10 with medium, was added. Samples were then incubated for 3 hours at 37° C. PrestoBlue is reduced from blue resazurin to red resorufin in the presence of viable cells. The absorbance (595 nm) was read with a Victor X3 plate reader.

P. berghei ANKA [2] = experiment: Brain histopathology (hemorrhages, blood brain barrier integrity) in cerebral malaria mouse model; assay type: in vivo; conditions: Losartan 10 mg/Kg/d, CGP-42112A 500 ng/min/kg
Protocol: Cerebral Malaria Experimental Mouse Model. Female C57BL/6J mice were obtained from Taconic Farms Inc. All mice were maintained under barrier conditions. Water and normal laboratory diet were available ad libitum. The infection was performed by inoculating i.p. 10^6 infected erythrocytes with P. berghei ANKA. All procedures involving animals conformed to the Guide for the Care and Use of Laboratory Animals published by US National Institutes of Health (NIH Publication No. 85-23, revised 1985) and were performed with the approval of the Animal Care and Use Committee at the University of New York. Alzet osmotic minipumps (Model 1002; ALZA Scientific Products, Mountain View, Calif., USA) were implanted into C57BL/6J mice at 4 months of age. Pumps were filled either with saline vehicle or solution of CGP-42112A (Sigma Chemical Co.) that delivered (subcutaneously) at 500 ng/min/kg for the duration of the study. Pumps were placed into the subcutaneous space of subcutaneous bupivacaine anesthetized mice through a small incision on the animal back slightly posterior of the shoulder blades that was closed with Reflex 7 mm wound closure system (ALZA Scientific Products, Mountain View, Calif., USA).

P. berghei ANKA [3] = experiment: Cerebral malaria experimental mouse model (development of cerebral malaria, mortality); assay type: in vivo; conditions: C57BL/6J mice infected with P. berghei ANKA; Losartan 10 mg/Kg/d in drinking water; compared with vehicle treatment

SMILES	damage to HBMECs caused by rupture and release of iRBCs, compared to control [1] [%]	quantification of hemorrhages in brain histological slices (P. berghei ANKA [2]; brains of infected mice (FIG. 4))	structure of the brain vessels and integrity of the blood brain barrier (BBB) (P. berghei ANKA [2]; brains of infected mice, Hematoxillin/Eosin, versus untreated groups)	reduction of mortality (P. berghei ANKA [3])
CC[C@H](C)[C@H](NC(=O)[C@@H]1CCCN1C(=O)[C@H](Cc1c[nH]cn1)NC(=O)[C@H](CCCCNC(=O)[C@H](CCCNC(=N)N)NC(=O)OCc1ccccc1)NC(=O)[C@H](Cc1ccc(O)cc1)NC(=O)c1cccnc1)C(=O)O [CGP-42112A, (25,35)-2-[[(25)-1-[(25)-2-[[(25)-6-[[(25)-5-(diaminomethylideneamino)-2-(phenylmethoxy-carbonylamino)pentanoyl]amino]-2-[[(25)-3-(4-hydroxyphenyl)-2-(pyridine-3-carbonylamino)propanoyl]amino]hexanoyl]amino]-3-(1H-imidazol-5-yl)propanoyl]pyrrolidine-2-carbonyl]amino]-3-methylpentanoic acid] (HELM PEPTIDE1{[O=C(c1cccnc1)[*:2]].Y.K.H.P.I}|PEPTIDE2{[O=C(OCc1ccccc1)[*:2]].R}$PEPTIDE1,PEPTIDE2,3:R3-2:R2$$$V2.0)	20	protective effect	better maintained	–
CCCCc1nc(Cl)c(CO)n1Cc1ccc(-c2ccccc2-c2nnn[nH]2)cc1 [Losartan, (2-butyl-4-chloro-1-{[2′-(1H-tetrazol-5-yl)biphenyl-4-yl]methyl]-1H-imidazol-5-yl)methanol]	–	–	–	4-5 times
